Data as given in patent US20230203023A1, “SALT AND CRYSTAL FORMS OF GLP-1R AGONISTS AND USES THEREOF” (QILU REGOR THERAPEUTICS INC., priority 2020, published 2023).
Counter-ions that a name gives are not always drawn.

Assays:
Assay type in all cases: physicochemical
[1] = Solid stability evaluation (I/II), XRPD and HPLC; conditions: for Chemical stability compared with free form: 60° C. 1 day, 25° C./60% RH or 40° C./75% RH 1 week
Experimental: To evaluate the physical and chemical stability of 1:1 Compound I Tris Salt (Form A) and amorphous free form, samples were stored under the conditions of 60° C. for 1 day and 25° C./60% RH or 40° C./75% RH for 1 week, respectively.
To evaluate the physical and chemical stability of 1:1 Compound II Citrate Salt (Form A), 1:1 Compound II Tris Salt (Form B) and freeform, samples were stored under the conditions of 60° C. for 1 day and 25° C./60% RH or 40° C./75% RH for 1 week, respectively.

Hygroscopicity, DVS test = conditions: for Hygroscopicity: according to Chinese Pharmacopeia 2015
Experimental: DVS was measured via a SMS (Surface Measurement Systems) DVS Intrinsic. The relative humidity at 25° C. were calibrated against deliquescence point of LiCl, Mg(NO3)2 and KCl.
To investigate the solid form stability as a function of humidity, DVS isotherm plot of 1:1 Compound I Tris Salt (Form A) was collected between 0% RH and 95% RH at 25° C. […] Considering the 1:1 Compound I Tris Salt (Form A) is a hydrate and may dehydrate under low humidity, DVS was also tested at 20 and 30° C. to further confirm the suitable storage condition and avoid dehydration. […] Combing the VH-XRPD and DVS results: the condition of 20-30° C. and relative humidity ≥40% RH is suitable for the storage of 1:1 Compound I Tris Salt (Form A).
To investigate the solid form stability as a function of humidity, DVS isotherm plots of 1:1 Compound II Citrate Salt (Form A) and 1:1 Compound II Tris Salt (Form B) were collected at 25° C. between 0% RH and 95% RH. […] The water uptake increased by 0.97% from 10% to 80% RH and a platform was observed.

[2] = Solution stability evaluation in SGF (pH 1.8) and pH 8.0 buffer at RT
Experimental: Weigh 100 mg of sodium chloride and 50 mg of Triton X-100 into a 50-mL volumetric flask. Add appropriate volume of purified water and sonicate until all solids are completely dissolved. Add about 68 μL of 12 M HCl and sufficient purified water closely to the target volume and adjust to pH 1.8. Dilute to volume with purified water, mix well and check the pH with a pH meter.
Add sufficient purified water closely to the target volume and adjust to pH 8.0. Dilute to volume with purified water, mix well and check the pH with a pH meter. […]
Solution stability was evaluated for 1:1 Compound II Citrate Salt (Form A) and 1:1 Compound II Tris Salt (Form B) in SGF (pH 1.8) and pH 8.0 buffer at RT. Clear solutions were prepared at two concentrations (0.01 mg/mL, 0.05 mg/mL) and then placed at RT for 6 hours, 1/5 days or 6 hours, 1/3/7 days. […] The HPLC purity and pH value were tested and the results were summarized from Table 7-3-1 to Table 7-3-4.

[3] = 0.01 mg/mL, pH 1.8 (SGF), Initial
[4] = 0.01 mg/mL, pH 1.8 (SGF), RT, 6 hours
[5] = 0.01 mg/mL, pH 8.0 (50 mM phosphate), Initial
[6] = 0.01 mg/mL, pH 8.0 (50 mM phosphate), RT, 6 hours
[7] = 0.05 mg/mL, pH 1.8 (SGF), Initial
[8] = 0.05 mg/mL, pH 1.8 (SGF), RT, 6 hours
[9] = 0.05 mg/mL, pH 8.0 (50 mM phosphate), Initial
[10] = 0.05 mg/mL, pH 8.0 (50 mM phosphate), RT, 6 hours
[11] = 1 day, 0.01 mg/mL, pH 1.8 (SGF), RT
[12] = 1 day, 0.01 mg/mL, pH 8.0 (50 mM phosphate), RT
[13] = 1 day, 0.05 mg/mL, pH 1.8 (SGF), RT
[14] = 1 day, 0.05 mg/mL, pH 8.0 (50 mM phosphate), RT
[15] = 5 days, 0.01 mg/mL, pH 1.8 (SGF), RT
[16] = 5 days, 0.01 mg/mL, pH 8.0 (50 mM phosphate), RT
[17] = 5 days, 0.05 mg/mL, pH 1.8 (SGF), RT
[18] = 5 days, 0.05 mg/mL, pH 8.0 (50 mM phosphate), RT
[19] = 0.01 mg/mL, pH 1.8 (SGF), RT, 1 day
[20] = 0.01 mg/mL, pH 1.8 (SGF), RT, 5 days
[21] = 0.01 mg/mL, pH 8.0 (50 mM phosphate), RT, 1 day
[22] = 0.01 mg/mL, pH 8.0 (50 mM phosphate), RT, 5 days

In the case of N#Cc1ccc(COc2cccc(C3=CCN(Cc4nc5ccc(C(=O)O)cc5n4C[C@@H]4CCO4)CC3)n2)c(F)c1 [Citrate salt Form A, (S)-2-((6-((4-cyano-2-fluorobenzyl)oxy)-3′,6′-dihydro-[2,4′-bipyridin]-1′(2′H)-yl)methyl)-1-(oxetan-2-ylmethyl)-1H-benzo[d]imidazole-6-carboxylic acid], the Form change ([1]; 25° C./60% RH (open), 1 week) is reported as “No”, the Observation ([1]; 25° C./60% RH (open), 1 week) is reported as “White” and the “Purity (area %)” value ([1]; 25° C./60% RH (open), 1 week) is reported as 97.58 area %. For the same molecule, the Form change ([1]; 40° C./75% RH (open), 1 week) was “No”, the Observation ([1]; 40° C./75% RH (open), 1 week) was “White” and the “Purity (area %)” value ([1]; 40° C./75% RH (open), 1 week) was 97.14 area %. For the same molecule, the “Chemical stability compared with free form” value [1] was “better chemical stability”, the Form change ([1]; 60° C. (capped), 1 day) was “No” and the Observation ([1]; 60° C. (capped), 1 day) was “White”. The “Purity (area %)” value ([1]; 60° C. (capped), 1 day) was 97.50 area %, the Form change ([1]; Initial) was “No” and the Observation ([1]; Initial) was “White”. The “Purity (area %)” value ([1]; Initial) was 97.73 area %, the “Form change after DVS test” value (Hygroscopicity, DVS test; 25° C.) was “No” and the “Water uptake (80% RH)” value (Hygroscopicity, DVS test; 25° C.) was 0.71%. The “Water uptake (80% RH)” value (Hygroscopicity, DVS test; 25° C., listed as 1:1 Compound II Citrate Salt (Form A)) was 0.71%, the Hygroscopicity (Hygroscopicity, DVS test; 25° C.) was “Slightly hygroscopic” and the “Purity (% area)” value [2, 3] was 100.00 % area. For the same molecule, the pH [2, 3] was 1.8, the “Purity (% area)” value [2, 4] was 100.00 % area and the “Purity vs. Initial (%)” value [2, 4] was 100.0%. For the same molecule, the pH [2, 4] was 1.8, the “Purity (% area)” value [2, 5] was 98.67 % area and the pH [2, 5] was 8.0. For the same molecule, the “Purity (% area)” value [2, 6] was 97.89 % area, the “Purity vs. Initial (%)” value [2, 6] was 99.2% and the pH [2, 6] was 8.0. For the same molecule, the “Purity (% area)” value [2, 7] was 97.84 % area, the pH [2, 7] was 1.8 and the “Purity (% area)” value [2, 8] was 97.54 % area. The “Purity vs. Initial (%)” value [2, 8] was 99.7%, the pH [2, 8] was 1.8 and the “Purity (% area)” value [2, 9] was 98.22 % area. For the same molecule, the pH [2, 9] was 8.0, the “Purity (% area)” value [2, 10] was 98.03 % area and the “Purity vs. Initial (%)” value [2, 10] was 99.8%. For the same molecule, the pH [2, 10] was 8.0, the “Purity (% area)” value [2, 11] was 98.51 % area and the “Purity vs. Initial (%)” value [2, 11] was 98.5%. The pH [2, 11] was 1.8, the “Purity (% area)” value [2, 12] was 97.36 % area and the “Purity vs. Initial (%)” value [2, 12] was 98.7%. For the same molecule, the pH [2, 12] was 8.0, the “Purity (% area)” value [2, 13] was 96.61 % area and the “Purity vs. Initial (%)” value [2, 13] was 98.7%. For the same molecule, the pH [2, 13] was 1.8, the “Purity (% area)” value [2, 14] was 97.95 % area and the “Purity vs. Initial (%)” value [2, 14] was 99.7%. The pH [2, 14] was 8.0, the “Purity (% area)” value [2, 15] was 94.05 % area and the “Purity vs. Initial (%)” value [2, 15] was 94.1%. The pH [2, 15] was 1.9, the “Purity (% area)” value [2, 16] was 97.14 % area and the “Purity vs. Initial (%)” value [2, 16] was 98.5%. For the same molecule, the pH [2, 16] was 7.9, the “Purity (% area)” value [2, 17] was 92.31 % area and the “Purity vs. Initial (%)” value [2, 17] was 96.1%. For the same molecule, the pH [2, 17] was 1.8, the “Purity (% area)” value [2, 18] was 97.75 % area and the “Purity vs. Initial (%)” value [2, 18] was 99.5%. For the same molecule, the pH [2, 18] was 8.0.
With O=C(O)c1ccc2nc(CN3CC=C(c4cccc(OCc5ccc(Cl)cc5F)c4)CC3)n(C[C@@H]3CCO3)c2c1 [Tris salt Form A, (S)-2-((4-(3-((4-chloro-2-fluorobenzyl)-oxy)phenyl)-3,6-dihydropyridin-1(2H)-yl)methyl)-1-(oxetan-2-ylmethyl)-1H-benzo[d]-imidazole-6-carboxylic acid] the “Purity (area %)” value ([1]; 25° C./60% RH (open), 1 week) was 94.70 area %, the Form change ([1]; 40° C./75% RH (open), 1 week) was “No” and the Observation ([1]; 40° C./75% RH (open), 1 week) was “Yellowish”. The “Purity (area %)” value ([1]; 40° C./75% RH (open), 1 week) was 95.40 area %, the “Chemical stability compared with free form” value [1] was “better chemical stability” and the “Purity (area %)” value ([1]; 60° C. (capped), 1 day) was 93.49 area %. For the same molecule, the “Purity (area %)” value ([1]; Initial) was 95.46 area %, the “Form change after DVS test” value (Hygroscopicity, DVS test; 20° C.) was “No” and the “Water uptake (80% RH)” value (Hygroscopicity, DVS test; 20° C.) was 2.24%. For the same molecule, the Hygroscopicity (Hygroscopicity, DVS test; 20° C.) was “Hygroscopic”, the “Form change after DVS test” value (Hygroscopicity, DVS test; 25° C.) was “No” and the “Water uptake (80% RH)” value (Hygroscopicity, DVS test; 25° C.) was 2.77%. For the same molecule, the Hygroscopicity (Hygroscopicity, DVS test; 25° C.) was “Hygroscopic”, the “Form change after DVS test” value (Hygroscopicity, DVS test; 25° C., listed as 1:1 Compound I Tris Salt (Form A)) was “No form change” and the “Form change after DVS test” value (Hygroscopicity, DVS test; 30° C.) was “No”. For the same molecule, the “Water uptake (80% RH)” value (Hygroscopicity, DVS test; 30° C.) was 2.99%, the Hygroscopicity (Hygroscopicity, DVS test; 30° C.) was “Hygroscopic” and the “Purity (% area)” value [2, 3] was 100.00 % area. For the same molecule, the pH [2, 3] was 1.8, the “Purity (% area)” value [2, 4] was 100.00 % area and the “Purity vs. Initial (%)” value [2, 4] was 100.0%. The pH [2, 4] was 1.8, the “Purity (% area)” value [2, 19] was 100.00 % area and the “Purity vs. Initial (%)” value [2, 19] was 100.0%. For the same molecule, the pH [2, 19] was 1.8, the “Purity (% area)” value [2, 20] was 97.40 % area and the “Purity vs. Initial (%)” value [2, 20] was 97.4%. For the same molecule, the pH [2, 20] was 1.8, the “Purity (% area)” value [2, 5] was 97.70 % area and the pH [2, 5] was 8.1. For the same molecule, the “Purity (% area)” value [2, 6] was 96.92 % area, the “Purity vs. Initial (%)” value [2, 6] was 99.2% and the pH [2, 6] was 8.0. For the same molecule, the “Purity (% area)” value [2, 21] was 96.07 % area, the “Purity vs. Initial (%)” value [2, 21] was 98.3% and the pH [2, 21] was 8.0. For the same molecule, the “Purity (% area)” value [2, 22] was 94.34 % area, the “Purity vs. Initial (%)” value [2, 22] was 96.6% and the pH [2, 22] was 8.0. For the same molecule, the “Stability of the pH 1.8 solution, in words” value ([2]; SGF pH 1.8, RT, after 1 day) was “No significant degradation” and the “Stability of the pH 8.0 solution, in words” value ([2]; pH 8.0 buffer, RT) was “decreased slightly”.
